In US6083941A, “Inhibition of NMDA receptor activity by pregnenolone sulfate derivatives” (Trustees of Boston University, priority 1998, dated 2000):
Several values for one entry are separate records, joined by “and”; a condition that tells them apart may be missing. Equal entries are not always repeated. Structures can show the parent of a compound that is named as a salt.

Columns and labels:
[1] = system: NMDA-induced convulsion and mortality in mice; assay: NMDA-induced convulsion test (200 mg/kg NMDA); assay type: in vivo
Protocol: Male CD-1 mice (Charles River Laboratories, Wilmington, Mass.) weighing 20-25 g were used for the NMDA-induced convulsion test. Mice were injected intraperitoneally with the test compound dissolved in DMSO or with vehicle. NMDA (200 mg/kg, i.p.) was injected either 2 minutes after intravenous injection of test compound or 20 minutes after intraperitoneal injection of test compound.

[2] = system: NMDA-induced seizure and death in mice; assay: NMDA-induced seizure and death (100 mg/kg NMDA challenge); assay type: in vivo; settings: steroid 25 mg/kg i.p., DMSO 50%
Protocol: 5β3αHS (25 mg/kg, i.p.) protects mice from NMDA-induced death. None of the steroids tested altered the latency to NMDA-induced seizure. However, 100% of the animals that received 5β3αHS survived the 100 mg/kg NMDA challenge compared to 50% for DMSO, 75% for 5β3αS and E2 (3)HS, and 50% for E2 (17)HS.

[3] = system: mice; assay: Behavioral observational assessment after i.p. steroid; assay type: in vivo; settings: 25 mg/kg i.p.; for behavioral assessment: 30 min. after injection
Protocol: To test for behavioral effects, PS, 5β3αS, 5β3αHS, βE2 (17)HS, or βE2 (3)HS (7 mg/ml in DMSO) was administered to mice i.p. at 25 mg/kg (5 animals per drug group). Behavioral assessments were made 30 min. after injection using a comprehensive observational assessment of motor-affective responses, sensory-motor responses, posture, muscle tone, equilibration, CNS excitation, and autonomic function (Irwin, R. P., et al., NeuroSci. Lett., 141:30-44 (1968)). […] The latency to loss of righting reflex was 2.5±0.5 min., and the latency to regain the righting reflex was 83±11 min. The rapidity of onset argues that 5β3αHS readily crosses the blood brain barrier.

[4] = system: NMDA receptor; assay: Whole cell patch clamp, NMDA-induced current in cultured chick spinal cord neurons; assay type: cell-based; settings: for average inhibition of the current induced by 30 μM NMDA: 50 μM steroid
Protocol: Cultures of dissociated spinal cord neurons were prepared as previously described (Farb, D. H., et al., J. Cell Biol., 80:651-661 (1979)). Briefly, the dissociated cells from 7-day chick embryos were plated on collagen-coated 35-mm tissue culture dishes in Eagle's minimum essential medium supplemented with 2.4 mM glutamine, 10% (v/v) heat-inactivated horse serum, 5% (v/v) chick embryo extract and antibiotics. Cultures were maintained in a humidified atmosphere of 5% CO2, 95% air at 37°. Cytarabine (1 μM) was added to the culture medium after 36 hr. of the initial plating to inhibit the proliferation of non-neuronal cells. One day later, this medium was replaced with a similar medium supplemented with 20.5 mM glucose, 19 mM KCl, and 2.5% chick embryo extract. Fresh medium was added twice weekly. Cultured neurons were used in experiments within 2-4 weeks after plating.
Experiments were carried out in 35-mm tissue culture dishes on the stage of an inverted phase contrast microscope. Whole cell currents were recorded by the whole cell variant of the patch clamp technique (Hamill, O. P., et al., Pfagers Arch. 891:85-100 (1981)). Patch electrodes had tip openings of about […] and resistances of 3-8 M.OMEGA. using an intracellular solution comprised of the following (in mM): 140 CsCl, 11 EGTA, and 10 HEPES (pH adjusted to 7.2 with CsOH). In experiments in which a high concentration of glycine was used, the intracellular solution was replaced with a low chloride (10 mM) pipette solution. This solution contained the following (in mM): 140 potassium gluconate, 10 KCl, 8 sodium gluconate, 11 EGTA, and 10 HEPES (pH adjusted to 7.2 with KOH). To prevent a marked run-down of NMDA-induced current at high NMDA concentrations, 4 mM potassium ATP was included in the intracellular solution. The bath solution contained the following (in mM): 150 NaCl, 4 KCl, 1 CaCl2, and 10 HEPES (pH adjusted to 7.2 with NaOH). No glycine was added to the solutions containing NMDA, because no additional glycine was required to obtain a robust NMDA response, and there was no effect of a maximal concentration (10 μM) of glycine on 5β3αS inhibition of the NMDA response. All experiments were performed at room temperature (23-25° C.).
Recordings were made using an Axopatch 1B patch clamp apparatus (Axon Instruments, Burlingame, Calif.). Cells with series resistances greater than 10 M.OMEGA. were rejected. After partial compensation, series resistances were between 3.5 and 6 M.OMEGA.. The holding potential was maintained at -70 mV unless otherwise noted. Currents were filtered at 1 kHz using an eight-pole Bessel filter (-3 dB) and digitized ([…]) using an on-line data acquisition system (pClamp, Axon Instruments).
Drug solutions were applied to single neurons by pressure ejection (15 psi) from seven-barrel pipettes. Seven-barrel pressure pipettes were positioned approximately […] from the neuronal soma. Under these conditions, the drug solution in the pressure pipette rapidly and effectively replaces the solution surrounding the target neurons with less than 10% dilution (Choi, D. W., et al., Nature (Lond.) 269:342-344 (1977); Chan, C. Y., et al., Life Sci., 83:2061-2069 (1983); Chan, C. Y. and Farb, D. H., J. Neurosci., 5:2365-2373 (1985)). All drugs were obtained from Sigma, with the except of AMPA hydrobromide (Research Biochemicals) and steroids (Steraloids). Stock solutions of steroids were prepared in dimethyl sulfoxide, the final concentration of which was 0.5% (v/v). To obviate the possible effects of dimethyl sulfoxide on the relevant agonist-induced currents, all other drug solutions including NMDA, kainate, AMPA and external buffer (in the pressure pipette) also contained 0.5% dimethyl sulfoxide. […]

[5] = mice, i.p., high dose, time limit 30 min

`CC(=O)[C@H]1CC[C@H]2[C@@H]3CC[C@@H]4C[C@H](OC(=O)CCC(=O)O)CC[C@]4(C)[C@H]3CC[C@]12C` [5β3αHS, 3α-hydroxy-5β-pregnan-20-one hemisuccinate] was tested, and the “mortality induced by 200 mg/kg of NMDA” value ([1]; mice, i.p., FIG. 7) was “dose-dependently inhibited mortality”, the “tonic seizures induced by 200 mg/kg of NMDA” value ([1]; mice, i.p., FIG. 7) was “dose-dependently inhibited tonic seizures” and the “mortality induced by NMDA at the high dose” value [1, 5] was “completely block the mortality”. For the same compound, the “tonic seizures induced by NMDA at the high dose” value [1, 5] was “completely block the seizures”, the “animals that survived the 100 mg/kg NMDA challenge” value [2] was 100% and the “latency to loss of righting reflex” value [3] was 2.5 ± 0.5 min. The “latency to regain the righting reflex” value [3] was 83 ± 11 min and the “behavioral assessment” value [3] was “lost virtually all muscle tone”.

`CC(=O)[C@H]1CC[C@H]2[C@@H]3CC[C@@H]4C[C@H](OS(=O)(=O)O)CC[C@]4(C)[C@H]3CC[C@]12C` [5β3αS, 3α-hydroxy-5β-pregnan-20-one sulfate] was tested, and the “seizures and mortality induced by NMDA” value ([1]; mice, i.v. administration, FIG. 8) was “effective in blocking seizures and mortality”, the “latency to onset of seizures” value ([1]; printed:) was “increases the latency to onset of seizures” and the “mortality” value ([1]; printed: rats following i.v. injection of 200 mg/kg NMDA) was “decreases mortality”. The “animals that survived the 100 mg/kg NMDA challenge” value [2] was 75%, the “average inhibition of the current induced by 30 μM NMDA” value ([4]; in the absence of glycine) was 49.1±3.4% and the “average inhibition of the current induced by 30 μM NMDA” value ([4]; with added 10 μM glycine) was 51.3±3.5%. For the same compound, the “inhibition of the response to 30 μM NMDA” value ([4]; 100 μM steroid applied with NMDA, holding potential -70 mV, sulfate) was 66% and 66.1±2.7%, the “average inhibition of the NMDA-induced current” value ([4]; 100 μM steroid, holding potential +50 mV) was 62.0±2.8% and the “average inhibition of the NMDA-induced current” value ([4]; 100 μM steroid, holding potential -70 mV, voltage dependence test) was 63.2±2.7%. For the same compound, the “maximal inhibition of the 30 μM NMDA response” value ([4]; curve-fit analysis) was 101.1%, the “NMDA nH in the presence of steroid” value ([4]; in the presence of 50 μM 5β3αS) was 1.46 and the EC50 ([4]; read-out: EC50 for inhibition of the 30 μM NMDA response, concentration-response curve, curve-fit, 30 μM NMDA, sulfate) was 62 µM and 62.1 µM. For the same compound, the “direct response to steroid applied alone” value ([4]; steroid alone) was “did not produce any direct response” and the “behavioral assessment” value [3] was “very minor behavioral impairment”.

With `CC(=O)C1CCC2C3CC=C4CC(OS(=O)(=O)O)CCC4(C)C3CCC12C` (stereo not drawn) [PS, pregnenolone sulfate] the “average NMDA response with intracellular steroid” value ([4]; 100 μM steroid in the electrode buffer) was “did not differ significantly from control”, the “potentiation of the NMDA response” value ([4]; 100 μM steroid in the presence of 10 μM arachidonic acid) was 182±25% and the “potentiation of the NMDA response” value ([4]; 100 μM steroid in the presence of 200 μM 5β3βS) was “still evident”. The “potentiation of the NMDA induced current” value ([4]; 100 μM steroid, after about 1 hour of 4 mM DTT) was 165±26%, the “potentiation of the response to 30 μM NMDA” value ([4]; 100 μM steroid, in the absence of spermine) was 150±14% and the “potentiation of the NMDA response” value ([4]; 100 μM steroid, in the presence of 100 μM spermine) was 178±12%. The “potentiation of the 30 μM NMDA response” value ([4]; after DTT plus NEM treatment) was 103±23%, the “potentiation of the NMDA response” value ([4]; after approximately 1 hour of exposure to 10 mM DTT) was 161±12% and the “potentiation of the NMDA response by extracellularly applied steroid” value ([4]; in the absence of intracellular PS) was 158±24%. For the same compound, the “potentiation of the NMDA response by extracellularly applied steroid” value ([4]; in the presence of intracellular PS (100 μM)) was 152±23% and the “behavioral assessment” value [3] was “unaffected except for a single decreased score on locomotor activity”.
